Consider 23 compounds from patent US8906914B2, “Ethylene diamine modulators of fatty acid hydrolase” (priority 2009, dated 2014).

The test system of assay [1] is acute thermal nociception. Conditions: rats; WO 02/087569; cited from earlier work.
For the next assay, the system named is neuropathic pain. The conditions noted are these: rats; WO 02/087569; cited from earlier work.
Another assay has as its system spasticity. Conditions: Baker 2001; cited from earlier work.
Another assay concerns thermal nociception. The conditions noted are these: rat; cited from earlier work.
The test system of the next assay is nociception. The conditions noted are these: rat; Kathuria 2003; cited from earlier work.
The test system of another assay is anxiety. The conditions noted are these: rats; Kathuria 2003; cited from earlier work.
Another assay deals with T1, Rat FAAH-1 (Rattus norvegicus, UniProt P97612).
T1 construct: expressed in transfected cells
T1 sequence (P97612 1-579): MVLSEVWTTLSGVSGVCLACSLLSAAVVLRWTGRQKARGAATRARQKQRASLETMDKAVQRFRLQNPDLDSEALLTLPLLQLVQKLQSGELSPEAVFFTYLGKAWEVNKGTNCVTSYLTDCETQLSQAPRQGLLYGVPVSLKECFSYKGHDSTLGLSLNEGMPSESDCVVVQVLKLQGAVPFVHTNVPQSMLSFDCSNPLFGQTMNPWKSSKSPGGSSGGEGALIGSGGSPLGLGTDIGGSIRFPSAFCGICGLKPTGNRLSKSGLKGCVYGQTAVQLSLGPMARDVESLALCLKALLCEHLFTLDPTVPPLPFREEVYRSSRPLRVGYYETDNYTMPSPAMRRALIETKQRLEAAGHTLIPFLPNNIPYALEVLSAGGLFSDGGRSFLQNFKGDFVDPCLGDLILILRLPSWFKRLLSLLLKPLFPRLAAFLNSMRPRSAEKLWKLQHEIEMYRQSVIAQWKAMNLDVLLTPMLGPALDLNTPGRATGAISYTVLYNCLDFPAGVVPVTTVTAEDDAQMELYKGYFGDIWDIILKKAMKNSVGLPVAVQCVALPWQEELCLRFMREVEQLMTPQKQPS
Kind of assay: Rat FAAH-1 assay (Assay Method 2), 3H-anandamide hydrolysis in cell homogenate. It counts as biochemical. Put shortly:
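Homogenate of SK-N-MC cells stably transfected with rat FAAH cDNA, incubated with test compound and 80 nM final 3H-anandamide (ethanolamine-labelled) for 1 h at rt. Released 3H-ethanolamine separated from substrate on activated charcoal filters by centrifugation and counted by scintillation.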

The target of another assay is T2, FAAH (Homo sapiens, UniProt O00519).
T2 sequence (O00519 1-579): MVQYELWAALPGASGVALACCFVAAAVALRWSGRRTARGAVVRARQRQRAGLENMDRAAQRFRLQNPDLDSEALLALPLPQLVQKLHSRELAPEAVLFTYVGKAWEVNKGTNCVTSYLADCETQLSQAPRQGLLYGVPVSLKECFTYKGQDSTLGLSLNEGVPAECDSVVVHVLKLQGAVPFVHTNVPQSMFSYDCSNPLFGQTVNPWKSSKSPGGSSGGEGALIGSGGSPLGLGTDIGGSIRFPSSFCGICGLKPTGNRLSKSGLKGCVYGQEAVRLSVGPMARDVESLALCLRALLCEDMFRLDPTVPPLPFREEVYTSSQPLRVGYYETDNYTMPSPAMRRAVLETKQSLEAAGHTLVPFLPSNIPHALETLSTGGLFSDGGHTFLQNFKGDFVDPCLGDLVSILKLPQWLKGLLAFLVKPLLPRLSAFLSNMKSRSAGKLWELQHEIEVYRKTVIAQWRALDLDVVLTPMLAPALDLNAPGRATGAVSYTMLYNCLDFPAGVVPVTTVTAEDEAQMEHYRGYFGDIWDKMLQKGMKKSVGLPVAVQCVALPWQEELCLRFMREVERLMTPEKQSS
In words: Human FAAH assay (Assay Method 1), 3H-anandamide hydrolysis in cell homogenate. It counts as biochemical. Also on record: expressed in transfected cells; alternatively T84 frozen cell pellets (endogenous FAAH). Put shortly: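 Homogenate of SK-N-MC cells stably transfected with human FAAH, incubated with compound and 80 nM (final) 3H-anandamide for 1 h at rt. Released 3H-ethanolamine separated from substrate on activated charcoal by centrifugation and counted by scintillation; ">" values denote solubility limit or top concentration tested.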

Counter-ions that a name gives are not always drawn.

`Cc1nc(-c2ccccc2)c(-c2ccccc2)n1CCCCCCNC(=O)Oc1ccccc1F` [BMS-1]: the “analgesic effect in Hargraves test” value in assay [1] was “analgesic effect”. The “analgesic effect in Chung spinal nerve ligation model” value with neuropathic pain is listed as “analgesic effect”.

`CCCCCCCCCCCCCCCCS(=O)(=O)F` [AM374]: the “spasticity in CREAE mice” value with spasticity is “significantly reduce spasticity”.

Take `NC(=O)c1cccc(-c2cccc(OC(=O)NC3CCCCC3)c2)c1` [URB-597]: the “analgesic efficacy/activity in hot plate test” value in the assay on thermal nociception is given as “analgesic efficacy”. In addition, the “analgesic efficacy in formalin test” value with nociception is “analgesic efficacy”. Further, in the assay on anxiety, the “efficacy in zero plus maze model of anxiety” value was “efficacy”.

What is called IC50 is the midpoint of a concentration-inhibition curve. Low values mean inhibition by little substance, high ones a need for much substance. Take `N[C@H](CNc1cc(-c2ccc(C(F)(F)F)c(Cl)c2)ncn1)c1ccc(Cl)cc1` [Example 38, (1S)—N^2-1-(4-Chloro-phenyl)-[6-(3-chloro-4-trifluoromethyl-phenyl)-pyrimidin-4-yl]-ethane-1,2-diamine, trifluoroacetic acid salt]: the IC50 worked out at 2200 nM on Rat FAAH-1 and 1600 nM against FAAH.

Turning to `N[C@@H](CNc1cc(-c2ccc(C(F)(F)F)c(Cl)c2)ncn1)c1ccc2ccccc2c1` [Example 51, (1R)—N^2-[6-(3-Chloro-4-trifluoromethyl-phenyl)-pyrimidin-4-yl]-1-naphthalen-2-yl-ethane-1,2-diamine], the IC50 at Rat FAAH-1 turned out to be 40 nM; on FAAH it was 125 nM.

Regarding `N[C@H](CNc1cc(-c2ccc(C(F)(F)F)c(Cl)c2)ncn1)c1cccc(F)c1` [Example 36, (1S)—N^2-[6-(3-Chloro-4-trifluoromethyl-phenyl)-pyrimidin-4-yl]-1-(3-fluoro-phenyl)-ethane-1,2-diamine, trifluoroacetic acid salt], the IC50 against Rat FAAH-1 worked out at 2600 nM; against FAAH, 1000 nM.

As to `N[C@@H](CNc1cc(-c2cc3cc(OC(F)(F)F)ccc3s2)ncn1)c1ccccc1` [Example 25, (1R)-1-Phenyl-N^2-{6-[5-(trifluoromethoxy)-1-benzothiophen-2-yl]pyrimidin-4-yl}ethane-1,2-diamine hydrochloride acid salt], the IC50 came to 370 nM on Rat FAAH-1 and 80 nM against FAAH.

Take `N[C@@H](CNc1cc(-c2ccc(C(F)(F)F)c(Cl)c2)ncn1)c1ccc(F)cc1` [Example 27, (1R)—N^2-[6-(3-Chloro-4-trifluoromethyl-phenyl)-pyrimidin-4-yl]-1-(4-fluoro-phenyl)-ethane-1,2-diamine]: the concentration for half-maximal inhibition (IC50) was found to be 60 nM against Rat FAAH-1 and 33 nM at FAAH.

`N[C@@H](CNc1cc(-c2ccc(C(F)(F)F)c(Cl)c2)ncn1)c1ccc(F)c(Cl)c1` [Example 47, (1R)—N^2-1-(3-Chloro-4-fluoro-phenyl)-[6-(3-chloro-4-trifluoromethyl-phenyl)-pyrimidin-4-yl]-ethane-1,2-diamine]: the IC50 was 115 nM at Rat FAAH-1 and 120 nM against FAAH.

For the compound `N[C@@H](CNc1cc(-c2ccc(C(F)(F)F)c(Cl)c2)ncn1)c1ccc(SC(F)(F)F)cc1` [Example 61, (1R)—N^2-[6-(3-Chloro-4-trifluoromethyl-phenyl)-pyrimidin-4-yl]-1-(4-trifluoromethylsulfanyl-phenyl)-ethane-1,2-diamine], the IC50 was found to be 130 nM at Rat FAAH-1 and 180 nM against FAAH.

On to `NC(CNc1cc(-c2ccc(C(F)(F)F)c(Cl)c2)ncn1)c1ccccc1F` (stereo not shown) [Example 35, N^2-[6-(3-Chloro-4-trifluoromethyl-phenyl)-pyrimidin-4-yl]-1-(2-fluoro-phenyl)-ethane-1,2-diamine], for which the IC50 came out at 280 nM on Rat FAAH-1 and 170 nM against FAAH.

For `CCSc1ccc(-c2cc(NC[C@H](N)c3ccccc3)ncn2)cc1` [Example 22, (1R)—N^2-{6-[4-(Ethylsulfanyl)phenyl]pyrimidin-4-yl}-1-phenylethane-1,2-diamine hydrochloride acid salt], the figures for the IC50 against Rat FAAH-1 and against FAAH were 240 nM and 7 nM, respectively.

As to `N[C@@H](CNc1cc(-c2ccc3c(C(F)(F)F)noc3c2)ncn1)c1ccc(F)cc1` [Example 65, (1R)—N^2-1-(4-Fluoro-phenyl)-[6-(3-trifluoromethyl-benzo[d]isoxazol-6-yl)-pyrimidin-4-yl]ethane-1,2-diamine, trifluoroacetic acid salt], the IC50 was determined as 57 nM at Rat FAAH-1 and 45 nM against FAAH.

For the compound `N#Cc1ccc([C@H](N)CNc2cc(-c3ccc(C(F)(F)F)c(Cl)c3)ncn2)cc1` [Example 33, (1S)-4-{1-Amino-2-[6-(3-chloro-4-trifluoromethyl-phenyl)-pyrimidin-4-ylamino]-ethyl}-benzonitrile], the figures for the half-inhibitory concentration (IC50) at Rat FAAH-1 and at FAAH were 1000 nM and 570 nM, respectively.

For `N[C@@H](CNc1cc(-c2ccc(Cl)c(C(F)(F)F)c2)ncn1)c1ccccc1` [Example 17, (1R)—N^2-{6-[4-Chloro-3-(trifluoromethyl)phenyl]pyrimidin-4-yl}-1-phenylethane-1,2-diamine hydrochloride acid salt], the IC50 against Rat FAAH-1 amounted to 900 nM; at FAAH, 250 nM.

`N[C@@H](CNc1cc(-c2ccc(OC(F)(F)F)c(F)c2)ncn1)c1ccc(F)cc1` [Example 64, (1R)—N^2-1-(4-Fluoro-phenyl)-[6-(3-fluoro-4-trifluoromethoxy-phenyl)-pyrimidin-4-yl]-ethane-1,2-diamine, trifluoroacetic acid salt]: the IC50 is 75 nM against Rat FAAH-1 and 66 nM against FAAH.

For the compound `N[C@H](CNc1cc(-c2ccc(C(F)(F)F)c(Cl)c2)ncn1)c1ccc(C(F)(F)F)cc1` [Example 29, (1S)—N^2-[6-(3-Chloro-4-trifluoromethyl-phenyl)-pyrimidin-4-yl]-1-(4-trifluoromethyl-phenyl)-ethane-1,2-diamine], the IC50 against Rat FAAH-1 is 1700 nM; on FAAH, 1400 nM.

`N[C@@H](CNc1cc(-c2ccc(C(F)(F)F)c(Cl)c2)ncn1)c1ccc(Cl)c(Cl)c1` [Example 43, (1R)—N^2-[6-(3-Chloro-4-trifluoromethyl-phenyl)-pyrimidin-4-yl]-1-(3,4-dichloro-phenyl)-ethane-1,2-diamine]: the IC50 is 95 nM at Rat FAAH-1 and 200 nM against FAAH.

With `N[C@@H](CNc1cc(-c2ccc(Cl)c(Cl)c2)ncn1)c1ccccc1` [Example 16, (1R)—N^2-[6-(3,4-Dichlorophenyl)pyrimidin-4-yl]-1-phenylethane-1,2-diamine hydrochloride acid salt], the IC50 against Rat FAAH-1 came out at 500 nM; against FAAH, 90 nM.

Take `N[C@@H](CNc1cc(-c2cccc(OC(F)(F)F)c2)ncn1)c1ccccc1` [Example 18, (1R)-1-Phenyl-N^2-{6-[3-(trifluoromethoxy)phenyl]pyrimidin-4-yl}ethane-1,2-diamine hydrochloride acid salt]: the IC50 against Rat FAAH-1 is over 10000 nM; against FAAH, 920 nM.

As for `CC(C)(C)OC(=O)N[C@@H](CNc1cc(-c2ccc(C(F)(F)F)c(Cl)c2)ncn1)c1ccccc1` [Example 2, (1R)-{2-[6-(3-Chloro-4-trifluoromethyl-phenyl)-pyrimidin-4-ylamino]-1-phenyl-ethyl}-carbamic acid tert-butyl ester], the IC50 against Rat FAAH-1 was determined as 8000 nM; against FAAH it was 330 nM.

With `N[C@@H](CNc1cc(-c2ccc(Cl)cc2)ncn1)c1ccccc1` [Example 14, (1R)—N^2-[6-(4-Chlorophenyl)pyrimidin-4-yl]-1-phenylethane-1,2-diamine hydrochloride acid salt], the IC50 at Rat FAAH-1 was over 10000 nM; on FAAH, 1000 nM.

For `N[C@@H](CNc1cc(-c2ccc(OC(F)(F)F)cc2)ncn1)c1ccccc1` [Example 6, (1R)-1-Phenyl-N^2-{6-[4-(trifluoromethoxy)phenyl]pyrimidin-4-yl}ethane-1,2-diamine hydrochloride acid salt], the IC50 against Rat FAAH-1 was determined as 880 nM; against FAAH, 82 nM.
